Assay type in all cases: in vivo, mouse
Experiment [1] relates to diabetic cutaneous wounds. The experiment in a line: Peripheral wound healing (wound closure) in diabetic mice. As for the experimental part:
Tie2-GFP, wild-type or chimeric FVB mice at 6-12 wk of age were treated with STZ (Sigma-Aldrich) to induce diabetes. Mice were rendered diabetic by i.p. administration of 60 mg/kg STZ in 50 mM sodium citrate, pH 4.5, daily for 5 d. Control mice were treated with daily injections of citrate buffer. Serum glucose was measured from the mouse tail vein using a glucometer. Once serum glucose reached 250 mg/dL, mice were followed with daily measurements for 1 wk prior to use in experiments. Serum glucose levels in STZ mice averaged 461 mg/dL with a range of 372-520 mg/dL, while control mice serum glucose mean level was 120 mg/dL with a range of 94-135 mg/dL. Wounds were induced on the ventral surface of the mouse thigh using a 4 mm punch biopsy. Full-thickness skin was removed, exposing the underlying muscle.
Initial wound surface area was recorded and wounds were then followed serially with daily digital photographs using an Olympus digital camera. Photographs contained an internal scale to allow for standard calibration of measurements. Wound area was quantified using ImageJ software. Wound area was expressed as the percentage of original wound size. Wounds were followed for 6 d and mice were sacrificed at the conclusion of the experiment.
EPCs play a key role in vasculogenesis and cutaneous tissue repair. It was hypothesized that increased numbers of EPCs in circulation, along with enhanced EPC homing to wounds, results in improved wound healing in diabetes. Diabetic wound closure rates were studied, in response to treatment with HBO and SDF-1α alone and in combination. Wounded diabetic mice underwent daily wound injections with SDF-1α, PBS, HBO, or SDF-1α+HBO treatments. […] This healing response was greater than the response to either treatment modality alone. In addition, histochemical analysis was conducted to examine blood vessel density (VEGFR2 staining), cellularity and stromagenesis (H&E staining), and extracellular constitution (trichrome staining) in wound tissues. […]

The test system of another experiment is BM eNOS phosphorylation. In words: Western blot of bone marrow eNOS and phospho-eNOS. The following applies: diabetic mice treated with insulin. Here is the method: Isolation of whole BM from FVB/NJ mice (n=12/group) was obtained by flushing harvested femurs and tibias with PBS/2% FBS. Red blood cells were removed by Red Cell Lysis Buffer (Sigma-Aldrich). Isolated BM cells were then lysed and protein concentrations were determined by DC protein assay (Bio-Rad Laboratories). Equal amounts of protein were subjected to 4-12% SDS gel electrophoresis under reducing conditions. The transferred PVDF membranes were probed with primary Ab (anti-eNOS and anti-phospho-eNOS (Ser^1177) (BD Biosciences) diluted 1:500 in 1% milk in TBST buffer and then incubated with HRP-conjugated second Ab (DakoCytomation Inc.). Proteins were visualized using enhanced chemiluminescence (Amersham Bioscience).
In diabetic patients, circulating EPCs are decreased in both number and function, and so it was hypothesized that BM eNOS activation is impaired in diabetes. To examine this question, BM was isolated from streptozocin-induced (STZ-induced) diabetic and nondiabetic mice and analyzed via Western blot for levels of total and phosphorylated eNOS protein. Although no changes in the amount of total eNOS protein were observed, the levels of biologically active phosphorylated eNOS protein were decreased in diabetic mice as compared with nondiabetic controls (FIG. 12A). […]

Another experiment relates to SDF-1α in wound tissue. In words: Wound SDF-1α level (immunostaining). Particulars: diabetic mice treated with insulin. An excerpt:
For immunostaining, paraffin embedded serial sections (5 μm) were first underwent standard deparaffinizing and rehydration procedures and then probed with various Abs. To assess wound SDF-1α^+ cells, sections were double-stained with HTC-conjugated anti-SDF-1α and PE-conjugated different tissue-specific Abs (eBiosciences). To detect blood vessels in wound, sections were stained with HTC-conjugated anti-VEGFR2Ab. For examination of wound EPC recruitment in BM transplantation experiment, sections were double-stained with FITC-GFP and PE-VEGFR2 (BD Biosciences). Nuclei were counterstained with Hoescht dye. Masson's trichrome staining and H&E staining were performed using standard method and all reagents were from Sigma-Aldrich. Tissue sections were analyzed using fluorescence microscopy and ImageJ (NIH) software to quantitate fluorescent intensity. In trichrome stained slides, blue stain (collagen content) was also quantitatively analyzed by ImageJ.

The test system of experiment [2] is NO synthesis in bone marrow (NOS). The experiment in a line: Real-time bone marrow NO measurement with NO microelectrode during HBO. Particulars: diabetic mice, insulin 6 U/kg twice/d i.p. As for the experimental part: For HBO treatment, mice were placed in an animal hyperbaric chamber (Reneau Corp.) and subjected to 100% oxygen at 2.4 atmospheres absolute (ATA) for 90 min (Davis Wound Healing Protocol). To measure continuous, real-time BM NO levels, NO microelectrodes was inserted into the femoral marrow cavity as previously described. An osteotomy was created on the patellar surface of the murine femur using a 25 G beveled needle, allowing the electrode to be lowered into the marrow space when the animal was placed in the hyperbaric chamber. In some mice, pretreatment with L-NAME (40 mg/kg i.p.) (Sigma-Aldrich) was given 2 h prior to exposure to HBO.
In early studies, it was hypothesized that HBO2 augments stem cell mobilization because it stimulates •NO synthesis in the bone marrow, as •NO is known to play a central role with stem cell release from bone marrow. […] Mice were placed in a hyperbaric chamber where, while breathing air, baseline measurements were obtained. The chamber was then flushed with 100% O2 and compressed to 2.4 ATA O2.
Physiologically, the NO-mediated EPC release into circulation occurs in response to tissue-level hypoxia, although this compensatory response is inadequate in the setting of diabetes and results in severe defects in neovascularization and wound healing. […] Therefore, it was sought to utilize HBO as a tool to augment EPC release into circulation and further study both EPC mobilization and wound-homing mechanisms in the presence of diabetes. The goal was to determine whether hyperoxia stimulates NO production in the BM of diabetic mice via a NOS-mediated pathway and whether this pathway is impaired in diabetes. To test this hypothesis, Nafion polymer—coated NO microsensors were inserted into the femur BM space of both STZ induced diabetic and nondiabetic mice to measure real-time NO levels within the BM prior to and is during HBO-induced hyperoxia. […] It was speculated, that this was likely due to a compensatory effect from other NOS isoforms, and therefore the level of both iNOS and nNOS was examined in diabetic mice. […] However, no observation was made of any changes in the phosphorylation of these NOS isoforms.

Entries after “also recorded” stand apart in the source; their conditions may differ.

Here are results for 1 substance from US8440617B2, “Hyperbaric treatment in wound healing” (The Trustees of the University of Pennsylvania, priority 2007, dated 2013).

As to “insulin: human insulin (NPH), 6 U/kg twice/d i.p.”, in experiment [1] (diabetic mice), the “wound healing rate, insulin combined with HBO+SDF-1α therapy” value is “did not further accelerate”. Also, in experiment [1] (diabetic mice treated with insulin 6 U/kg twice/d i.p.), the wound healing rates result is given as “failed to improve; also recorded: Little effect”. Besides, the “reversal of impaired BM eNOS phosphorylation” value is recorded as “little effect” in the experiment with BM eNOS phosphorylation and “failed to restore” in the experiment on BM eNOS phosphorylation (listed as Insulin). Also, the “impaired wound SDF-1α production” value in the experiment with SDF-1α in wound tissue is reported as “failed to improve”. For the same substance, the “reversal of impaired BM NO production” value in experiment [2] is given as “little effect”; in experiment [2] (listed as Insulin) it was “did not reverse”.
